Reference: patent publication US9676780B2, “Piperazine-substituted [1,2,4]triazolo[1,5-C]quinazolin-5-amine compounds with A2A antagonist properties” (MERCK SHARP & DOHME CORP., priority 2012, dated 2017)

Each compound was assayed against T1, human A2a receptor (Homo sapiens, UniProt P29274) (assay: A2a receptor competition binding assay (Scintillation Proximity, tritiated radioligand)). Settings: membranes from HEK293 cells expressing the human A2a receptor; 0.5 nM tritiated ligand; SPA beads; one hour at room temperature; read-out: A2a EC50.
T1 construct: purchased Perkin-Elmer RBHA2AM400UA; host or cells: HEK293
Description: Binding affinities of compounds of the invention for the human A2a receptor were determined in a competition binding assay using Scintillation Proximity technology. […] The beads were then allowed to settle to the bottom of the wells for 1 hr, after which the membrane-associated radioactivity was determined by scintillation counting in a TopCount microplate reader. Ki values were determined using the Cheng-Prusoff equation.
• HEK293 cells expressing the human, rat, dog or monkey adenosine 2a receptor (Purchased from Perkin-Elmer # RBHA2AM400UA). • The Tritiated compound was prepared in-house by MRL Radiochemistry according to published methods. • Wheatgerm agglutinin-coated yttrium silicate SPA beads (GE Healthcare #RPNQ0023). […] This is a 2.5× solution. The final concentration in the assay is 0.5 nM. Calculate the concentration by counting two 5 ul aliquots. Membrane Preparation • Use 0.25 ug of membrane/well. Dilute membranes to 9.7 ug/ml in assay buffer. Treat with 20 ug/ml adenosine deaminase (ADA) for 15 minutes at room temperature to degrade endogenous adenosine. Membrane-Bead Mixture • Use 100 ug/well wheatgerm agglutinin-coated yttrium silicate SPA beads. • Mix ADA-treated membranes and SPA beads together for 30 min prior to assay. […] Incubate for one hour at room temperature with agitation. • Include total binding (assay buffer+1% DMSO) and non-specific binding (CGS15943, 1 uM) wells. Counting • Allow the beads to settle for one hour. • Count in TopCount. Calculations • A curve fitting program (i.e., Prism, Activity Base, Chemcart) is used to determine the EC50.
The Ki value is calculated using the Cheng-Prusoff equation. Ki=EC50/(1+(radioligand concentration/Kd))

T1 sequence (P29274 whole entry): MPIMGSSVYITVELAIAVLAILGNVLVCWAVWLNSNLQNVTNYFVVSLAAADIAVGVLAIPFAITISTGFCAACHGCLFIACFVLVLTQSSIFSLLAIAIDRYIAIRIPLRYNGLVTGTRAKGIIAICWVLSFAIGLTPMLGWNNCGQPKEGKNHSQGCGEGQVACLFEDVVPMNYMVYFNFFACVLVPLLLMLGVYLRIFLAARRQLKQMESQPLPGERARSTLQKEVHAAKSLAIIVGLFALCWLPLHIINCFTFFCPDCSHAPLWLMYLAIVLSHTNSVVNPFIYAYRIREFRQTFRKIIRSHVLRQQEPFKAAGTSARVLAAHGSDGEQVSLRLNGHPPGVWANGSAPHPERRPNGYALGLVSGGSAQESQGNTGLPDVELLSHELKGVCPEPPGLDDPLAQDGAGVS

Row | EC50 [nM] | Structure (SMILES)
1 | 190 | COc1cccc2c1nc(N)n1nc(CN3CCN(C)CC3c3ccccc3)nc21 (centres unmarked) [Ex-3]
2 | 21.2 | COc1cccc2c1nc(N)n1nc(CN3CC(C)N(c4ccccc4)CC3C)nc21 (centres unmarked) [Ex-8]
3 | 7.68 | COc1cc(F)cc2c1nc(N)n1nc(CN3CCN(c4ccc(F)cc4)CC3C)nc21 (centres unmarked) [Ex-11]
4 | 88 | CCn1ccnc1CN1CCN(Cc2nc3c4cccc(OC)c4nc(N)n3n2)C(C)C1 (centres unmarked) [Ex-12]
5 | 87.1 | COc1cccc2c1nc(N)n1nc(CN3CCN(Cc4nc5ccncc5n4C)CC3C)nc21 (centres unmarked) [Ex-13]
6 | 52.8 | CCn1cncc1CN1CCN(Cc2nc3c4cccc(OC)c4nc(N)n3n2)C(C)C1 (centres unmarked) [Ex-14]
7 | 8.1 | COc1cccc2c1nc(N)n1nc(CN3CCN(Cc4c(C)nc5scnn45)CC3C)nc21 (centres unmarked) [Ex-15]
8 | 36.5 | COc1cccc2c1nc(N)n1nc(CN3CCN(Cc4ncco4)CC3C)nc21 (centres unmarked) [Ex-16]
9 | 26.7 | COc1cccc2c1nc(N)n1nc(CN3CCN(Cc4nccs4)CC3C)nc21 (centres unmarked) [Ex-17]
10 | 26.9 | COc1cccc2c1nc(N)n1nc(CN3CCN(Cc4cccc(C)n4)CC3C)nc21 (centres unmarked) [Ex-18]
11 | 29.6 | COc1cccc2c1nc(N)n1nc(CN3CCN(Cc4ncccc4F)CC3C)nc21 (centres unmarked) [Ex-19]
12 | 51.7 | COc1cc(CN2CCN(Cc3nc4c5cccc(OC)c5nc(N)n4n3)C(C)C2)cc(OC)c1 (centres unmarked) [Ex-20]
13 | 20.3 | COc1cccc2c1nc(N)n1nc(CN3CCN(Cc4ccc(F)cc4F)CC3C)nc21 (centres unmarked) [Ex-21]
14 | 10 | COc1cccc2c1nc(N)n1nc(CN3CCN(Cc4cccc(Oc5ccccc5)c4)CC3C)nc21 (centres unmarked) [Ex-22]
15 | 17.7 | COc1cccc2c1nc(N)n1nc(CN3CCN(Cc4ccc(F)c(F)c4)CC3C)nc21 (centres unmarked) [Ex-23]
16 | 14.4 | COc1cccc2c1nc(N)n1nc(CN3CCN(Cc4c(F)cccc4F)CC3C)nc21 (centres unmarked) [Ex-24]
17 | 34.5 | COc1ccc(CN2CCN(Cc3nc4c5cccc(OC)c5nc(N)n4n3)C(C)C2)cc1F (centres unmarked) [Ex-25]
18 | 21.8 | COc1cccc2c1nc(N)n1nc(CN3CCN(Cc4cc(F)cc(F)c4)CC3C)nc21 (centres unmarked) [Ex-26]
19 | 6.8 | COc1cccc2c1nc(N)n1nc(CN3CCN(Cc4cccc(Cl)c4F)CC3C)nc21 (centres unmarked) [Ex-27]
20 | 15.6 | COc1cccc2c1nc(N)n1nc(CN3CCN(Cc4ccc(F)c(C)c4)CC3C)nc21 (centres unmarked) [Ex-28]
21 | 18.6 | COc1cccc2c1nc(N)n1nc(CN3CCN(Cc4ccc(F)c(F)c4F)CC3C)nc21 (centres unmarked) [Ex-29]
22 | 9.2 | COc1cccc2c1nc(N)n1nc(CN3CCN(Cc4cc(F)c(F)cc4F)CC3C)nc21 (centres unmarked) [Ex-30]
23 | 49.1 | COc1cccc2c1nc(N)n1nc(CN3CCN(Cc4ccc(N5CCCC5)cc4)CC3C)nc21 (centres unmarked) [Ex-31]
24 | 78.3 | COc1cccc2c1nc(N)n1nc(CN3CCN(Cc4ccc(N(C)C)cc4)CC3C)nc21 (centres unmarked) [Ex-32]
25 | 35.9 | COc1cccc2c1nc(N)n1nc(CN3CCN(Cc4ccc(N5CCCC5=O)cc4)CC3C)nc21 (centres unmarked) [Ex-33]
26 | 18.5 | COc1cccc2c1nc(N)n1nc(CN3CCN(c4ccc(Cl)cc4)C[C@@H]3C)nc21 [Ex-34]

Row | EC50 [nM] | Structure (SMILES)
27 | 3.7 | COc1cccc2c1nc(N)n1nc(CN3CCN(c4ccc(Cl)cc4)C[C@H]3C)nc21 [Ex-35]
28 | 18.1 | COc1cccc2c1nc(N)n1nc(CN3CCN(Cc4cc(C)ccc4C)CC3C)nc21 (centres unmarked) [Ex-36]
29 | 48.9 | COc1cc(F)cc2c1nc(N)n1nc(CN3CCN(c4ccc(F)cc4)CC3C)nc21 (centres unmarked) [Ex-37]
30 | 22.6 | COc1cccc2c1nc(N)n1nc(CN3CCN(c4ccc(C(F)(F)F)cn4)CC3C)nc21 (centres unmarked) [Ex-40]
31 | 18.1 | COc1cc(F)cc2c1nc(N)n1nc(CN3CCN(c4ccc(F)cn4)CC3C)nc21 (centres unmarked) [Ex-41]
32 | 28.3 | COc1cc(F)cc2c1nc(N)n1nc(CN3CCN(c4ccc(C(F)(F)F)cn4)CC3C)nc21 (centres unmarked) [Ex-42]
33 | 2.11 | COc1cccc2c1nc(N)n1nc(CN3CCN(c4ccc(F)cc4)C[C@H]3C3CC3)nc21 [Ex-43]
34 | 3.6 | COc1cccc2c1nc(N)n1nc(CN3CCN(c4ccc(F)cc4)C[C@H]3C(C)C)nc21 [Ex-44]
35 | 5.7 | CC[C@@H]1CN(c2ccc(F)cc2)CCN1Cc1nc2c3cccc(OC)c3nc(N)n2n1 [Ex-45]
36 | 50.2 | CCC1CN(C(=O)c2ccc(F)cc2)CC(C)N1Cc1nc2c3cccc(OC)c3nc(N)n2n1 (centres unmarked) [Ex-46]
37 | 59.2 | COc1cccc2c1nc(N)n1nc(CN3CCN(c4ccccc4C(F)(F)F)CC3C)nc21 (centres unmarked) [Ex-47]
38 | 18.2 | COc1cccc2c1nc(N)n1nc(CN3CCN(c4ccc(C(F)(F)F)cc4)CC3C)nc21 (centres unmarked) [Ex-48]
39 | 4.9 | COc1cccc2c1nc(N)n1nc(C(C)N3CCN(c4ccc(F)cc4)CC3C)nc21 (centres unmarked) [Ex-49]
40 | 139 | COc1cccc2c1nc(N)n1nc(C(C)N3CCN(c4ccc(F)cc4)C[C@H]3C)nc21 (stereo partly drawn) [Ex-50, 2-{1-[(2R)-4-(4-fluorophenyl)-2-methylpiperazin-1-yl]ethyl}-7-methoxy[1,2,4]triazolo[1,5-c]quinazolin-5-amine]
41 | 73.8 | COc1cccc2c1nc(N)n1nc(CN3CCN(c4nccs4)CC3C)nc21 (centres unmarked) [Ex-51]
42 | 48.5 | COc1cccc2c1nc(N)n1nc(CN3CCN(c4noc(C)n4)CC3C)nc21 (centres unmarked) [Ex-52]
43 | 15.9 | COc1cccc2c1nc(N)n1nc(CN3CCN(c4noc(C5CC5)n4)CC3C)nc21 (centres unmarked) [Ex-53]
44 | 106 | COc1cccc2c1nc(N)n1nc(CN3CCN(c4nnn[nH]4)CC3C)nc21 (centres unmarked) [Ex-54]
45 | 5.2 | COc1cccc2c1nc(N)n1nc(CN3CCN(c4cccc(C(F)(F)F)c4)C[C@H]3C)nc21 [Ex-55]
46 | 12.4 | COc1cccc2c1nc(N)n1nc(CN3CCN(c4ccccc4Cl)CC3C)nc21 (centres unmarked) [Ex-58]
47 | 30.9 | COc1cccc2c1nc(N)n1nc(CN3CCN(c4ccccc4C#N)CC3C)nc21 (centres unmarked) [Ex-59]
48 | 18.8 | COc1cccc2c1nc(N)n1nc(CN3CCN(c4cccc(C#N)c4)CC3C)nc21 (centres unmarked) [Ex-60]
49 | 11.4 | COc1cccc2c1nc(N)n1nc(CN3CCN(c4ccc(C#N)cc4)CC3C)nc21 (centres unmarked) [Ex-61]
50 | 1.44 | COc1cccc2c1nc(N)n1nc(CN3CCN(c4ccc5ncccc5c4)CC3C)nc21 (centres unmarked) [Ex-63]
51 | 13.1 | COc1cccc2c1nc(N)n1nc(CN3CCN(c4ccccc4C)CC3C)nc21 (centres unmarked) [Ex-64]
52 | 7 | COc1cccc2c1nc(N)n1nc(CN3CCN(c4cccc(C)c4)CC3C)nc21 (centres unmarked) [Ex-65]

Row | EC50 [nM] | Structure (SMILES)
53 | 3 | COc1cccc2c1nc(N)n1nc(CN3CCN(c4ccc(C)cc4)CC3C)nc21 (centres unmarked) [Ex-66]
54 | 11.5 | COc1cccc2c1nc(N)n1nc(CN3CCN(c4cccc5ccccc45)CC3C)nc21 (centres unmarked) [Ex-71]
55 | 6.7 | COc1cccc2c1nc(N)n1nc(CN3CCN(c4ccc5ccccc5c4)CC3C)nc21 (centres unmarked) [Ex-72]
56 | 31.8 | COc1cccc2c1nc(N)n1nc(CN3CCN(c4nnc(C)s4)CC3C)nc21 (centres unmarked) [Ex-74]
57 | 47.4 | COc1cccc2c1nc(N)n1nc(CN3CCN(c4nncs4)CC3C)nc21 (centres unmarked) [Ex-75]
58 | 21.1 | COCc1nc(N2CCN(Cc3nc4c5cccc(OC)c5nc(N)n4n3)C(C)C2)no1 (centres unmarked) [Ex-79]
59 | 19.4 | COc1cccc2c1nc(N)n1nc(CN3CCN(c4noc(C(C)C)n4)CC3C)nc21 (centres unmarked) [Ex-80]
60 | 68.2 | COc1cccc2c1nc(N)n1nc(CN3CCN(c4ncc(C(=O)O)s4)CC3C)nc21 (centres unmarked) [Ex-81]
61 | 628 | COc1cccc2c1nc(N)n1nc(CN3CCN(c4noc(=O)[nH]4)CC3C)nc21 (centres unmarked) [Ex-82]
62 | 47.6 | COc1cccc2c1nc(N)n1nc(CN3CCN(c4noc(C(F)(F)F)n4)CC3C)nc21 (centres unmarked) [Ex-83]
63 | 57.2 | COc1cccc2c1nc(N)n1nc(CN3CCN(c4nnc(C)[nH]4)CC3C)nc21 (centres unmarked) [Ex-84]
64 | 21.5 | CCc1nc(N2CCN(Cc3nc4c5cccc(OC)c5nc(N)n4n3)C(C)C2)no1 (centres unmarked) [Ex-87]
65 | 22.2 | COc1cccc2c1nc(N)n1nc(CN3CCN(c4noc(C(C)(C)C)n4)CC3C)nc21 (centres unmarked) [Ex-88]
66 | 72.2 | COc1cccc2c1nc(N)n1nc(CN3CCN(c4ncns4)CC3C)nc21 (centres unmarked) [Ex-89]
67 | 53.5 | COc1cccc2c1nc(N)n1nc(CN3CCN(C(=O)c4nc(C5CC5)no4)CC3C)nc21 (centres unmarked) [Ex-90]
68 | 42.2 | COc1cccc2c1nc(N)n1nc(CN3CCN(c4nc(C(C)(C)C)no4)CC3C)nc21 (centres unmarked) [Ex-91]
69 | 5.2 | COc1cccc2c1nc(N)n1nc(CN3CCN(C(C)c4ccc(F)cc4F)CC3C)nc21 (centres unmarked) [Ex-92]
70 | 4.6 | COc1cccc2c1nc(N)n1nc(CN3CCN(C(C)c4ccc(F)cc4F)CC3C)nc21 (centres unmarked) [Ex-93]
71 | 1.85 | COCCOc1ccc(N2CCN(Cc3nc4c5cccc(OC)c5nc(N)n4n3)C(C)C2)cc1 (centres unmarked) [Ex-94]
72 | 3.1 | COc1cccc2c1nc(N)n1nc(CN3CCN(c4ccc(F)cc4F)CC3C)nc21 (centres unmarked) [Ex-95]
73 | 3.41 | COc1cc(F)ccc1N1CCN(Cc2nc3c4cccc(OC)c4nc(N)n3n2)C(C)C1 (centres unmarked) [Ex-96]
74 | 18.2 | COc1cccc2c1nc(N)n1nc(CN3CCN(c4ccnc(C(F)(F)F)c4)CC3C)nc21 (centres unmarked) [Ex-97]
75 | 39.7 | COc1cccc2c1nc(N)n1nc(CN3CCN(c4cc(C)ccn4)CC3C)nc21 (centres unmarked) [Ex-98]
76 | 46.3 | COc1cccc2c1nc(N)n1nc(CN3CCN(c4cccc(C)n4)CC3C)nc21 (centres unmarked) [Ex-99]
77 | 29.4 | COc1cccc2c1nc(N)n1nc(CN3CCN(c4ccncc4C(F)(F)F)CC3C)nc21 (centres unmarked) [Ex-100]
